Assay [1] addresses T1, Pin1 (Homo sapiens, UniProt Q13526).
T1 construct: purchased Anaspec
Kind of assay: Evaluation of Pin1 enzyme inhibitory activity (Sensolyte Green Pin1 assay kit). Format: biochemical. Put shortly:
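Pin1 activity was measured with a fluorogenic kit assay (Sensolyte Green) using substrate prepared at 1 μM and protein at 50 μg/ml, both pre-mix concentrations. Compound working solutions were 100, 10, 1 or 0.1 μM, and reactions ran 2 h at room temperature in the dark, read at 490/520 nm. Inhibition was graded A–D by concentration.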

For assay [2], the system named is A2780-SP cells (ovarian cancer stem cells). Kind of assay: Sphere cell viability of A2780-SP cells (Cell-titer Glo). It is filed as cell-based. In short, it runs like this: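 A2780-SP ovarian cancer stem cells grown as spheres in ultra-low-attachment wells (1,500 cells/well) in neurobasal stem-cell medium with bFGF, EGF, B27. Compound added the day after plating, re-dosed on day 4, 8-day culture total; viability by CellTiter-Glo luminescence.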

Assay [3] concerns A2780 cells (ovarian cancer cells). Kind of assay: Cell viability of A2780 cells (Cell-titer Glo). It is filed as cell-based. Conditions: Homo sapiens. As for the experimental part: In order to confirm the inhibitory effect of the compound represented by formula 1 according to the present invention on the growth of MCF7, MCF7-SP, A2780 or A2780-SP cells, the following experiment was performed, and the results are shown in Tables 4 and 5 below.
In addition, A2780 cells (ovarian cancer cells) were plated in a 96-well plate at the density of 3000 viable cells per well, and cultured in RPMI-1640 medium supplemented with 10% FBS and 1% penicillin/streptomycin.
On the next day of culture, the cells were treated with the compound of Examples 57, and 69 to 144, followed by culture for 3 days. Cell viability was evaluated by Cell-titer Glo (Promega, WC, USA), and luciferase activity was detected using a Tecan plate reader (Biocompare, USA).

Setting [4] is: Table 2, read-out: concentration at which Pin1 inhibitory activity was exhibited.
The mark [5] stands for this setting: concentration at which the Pin1 enzyme activity is inhibited, 2 hours at room temperature, fluorescence 490 nm/520 nm, read-out: Pin 1 inhibition.
Where [6] appears, read: 192 h, sphere cell viability, culture for 8 days, read-out: A2780-SP.
The mark [7] stands for this setting: Table 5, read-out: the concentration (second list of b710, cell line not named; matches A2780-SP column).
Where [8] appears, read: 72 h, cell viability, culture for 3 days, read-out: A2780.
[9] abbreviates: A2780, Table 5, read-out: A2780 cell concentration.

Read-outs that look alike come from different tables or passages of the source.

T1 sequence (Q13526 whole entry): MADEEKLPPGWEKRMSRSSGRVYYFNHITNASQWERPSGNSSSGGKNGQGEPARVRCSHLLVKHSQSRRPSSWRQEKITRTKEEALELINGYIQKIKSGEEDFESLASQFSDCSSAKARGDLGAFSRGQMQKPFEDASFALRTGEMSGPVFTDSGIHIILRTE

As for `CN1CCN(C[C@@H](O)COc2ccc(S(=O)(=O)NCCCc3c[nH]c4ccc(Cl)cc34)cc2)CC1` [Example 171, (R)—N-(3-(5-chloro-1H-indole-3-yl)propyl)-4-(2-hydroxy-3-(4-methylpiperazine-1-yl)propoxy)benzenesulfonamide], the IC50 was less than 1000 nM in assay [1] (setting [4]); less than 1000 nM in assay [1] (setting [5]); less than 1000 nM in assay [2] (setting [6]); less than 1000 nM in assay [2] (setting [7]); more than 10000 nM in assay [3] (setting [8]).

Take `O=S(=O)(NCCCc1c[nH]c2ccc(Cl)cc12)c1ccc(OC[C@H](O)CN2CCNCC2)cc1` [Example 172, (R)—N-(3-(5-chloro-1H-indol-3-yl)propyl)-4-(2-hydroxy-3-(piperazin-1-yl)propoxy)benzenesulfonamide]: the IC50 is less than 1000 nM in assay [1] (setting [4]); less than 1000 nM in assay [1] (setting [5]); less than 1000 nM in assay [2] (setting [6]); less than 1000 nM in assay [2] (setting [7]); more than 10000 nM in assay [3] (setting [8]).

In the case of `CN1CCN(C[C@H](O)COc2ccc(S(=O)(=O)NCCCc3c[nH]c4ccc(Cl)cc34)cc2)CC1` [Example 173, (S)—N-(3-(5-chloro-1H-indol-3-yl)propyl)-4-(2-hydroxy-3-(4-methylpiperazin-1-yl)propoxy)benzenesulfonamide], the IC50 is less than 1000 nM in assay [1] (setting [4]); less than 1000 nM in assay [1] (setting [5]); less than 1000 nM in assay [2] (setting [6]); less than 1000 nM in assay [2] (setting [7]); 1000 to 10000 nM in assay [3] (setting [8]); less than 10000 nM in assay [3] (setting [9]).

`O=S(=O)(NCCCc1c[nH]c2ccc(Cl)cc12)c1ccc(OC[C@@H](O)CN2CCNCC2)cc1` [Example 174, (S)—N-(3-(5-chloro-1H-indol-3-yl)propyl)-4-(2-hydroxy-3-(piperazin-1-yl)propoxy)benzenesulfonamide]: the IC50 in assay [1] (setting [4]) is less than 1000 nM; in assay [1] (setting [5]), less than 1000 nM; in assay [2] (setting [6]) it was less than 1000 nM; in assay [2] (setting [7]) it was less than 1000 nM; in assay [3] (setting [8]), more than 10000 nM.

Consider `Cc1ncn(CCCOc2ccc(S(=O)(=O)NCCCc3c[nH]c4ccc(Cl)cc34)cc2)c1C` [Example 175, N-(3-(5-chloro-1H-indol-3-yl)propyl)-4-(3-(4,5-dimethyl-1H-imidazol-1-yl)propoxy)benzenesulfonamide], for which the IC50 in assay [1] (setting [4]) is less than 1000 nM; in assay [1] (setting [5]), less than 1000 nM; in assay [2] (setting [6]), less than 1000 nM; in assay [2] (setting [7]), less than 1000 nM; in assay [3] (setting [8]), 1000 to 10000 nM; in assay [3] (setting [9]), less than 10000 nM.

As for `Cc1nc(C)n(CCCOc2ccc(S(=O)(=O)NCCCc3c[nH]c4ccc(Cl)cc34)cc2)c1C` [Example 176, N-(3-(5-chloro-1H-indol-3-yl)propyl)-4-(3-(2,4,5-trimethyl-1H-imidazol-1-yl)propoxy)benzenesulfonamide], the IC50 in assay [1] (setting [4]) is less than 1000 nM; in assay [1] (setting [5]), less than 1000 nM; in assay [2] (setting [6]) it was less than 1000 nM; in assay [2] (setting [7]), less than 1000 nM; in assay [3] (setting [8]) it was 1000 to 10000 nM; in assay [3] (setting [9]), less than 10000 nM.

Consider `CN1CCN(CCCOc2ccc(S(=O)(=O)NCC3CCc4[nH]c5ccc(Cl)cc5c4C3)cc2)CC1` (stereo not drawn) [Example 177, N-((6-chloro-2,3,4,9-tetrahydro-1H-carbazole-3-yl)methyl) 4-(3-(4-methylpiperazine-1-yl)propoxy)benzenesulfonamide], for which the IC50 is less than 1000 nM in assay [1] (setting [4]); less than 1000 nM in assay [1] (setting [5]); less than 1000 nM in assay [2] (setting [6]); less than 1000 nM in assay [2] (setting [7]); 1000 to 10000 nM in assay [3] (setting [8]); less than 10000 nM in assay [3] (setting [9]).

For the compound `O=S(=O)(NCC1CCc2[nH]c3ccc(Cl)cc3c2C1)c1ccc(OCCCN2CCNCC2)cc1` (stereo not drawn) [Example 178, N-((6-chloro-2,3,4,9-tetrahydro-1H-carbazol-3-yl)methyl)-4-(3-(piperazin-1-yl)propoxy)benzenesulfonamide], the IC50 in assay [1] (setting [4]) is less than 1000 nM; in assay [1] (setting [5]), less than 1000 nM; in assay [2] (setting [6]), less than 1000 nM; in assay [2] (setting [7]) it was less than 1000 nM; in assay [3] (setting [8]), 1000 to 10000 nM; in assay [3] (setting [9]), less than 10000 nM.

In the case of `O=S(=O)(NCCCc1c[nH]c2cc(Cl)c(Cl)cc12)c1ccc(OCCCN2CCNCC2)cc1` [Example 183, N-(3-(5,6-dichloro-1H-indol-3-yl)propyl)-4-(3-(piperazin-1-yl)propoxy)benzenesulfonamide], the IC50 was less than 1000 nM in assay [1] (setting [4]); less than 1000 nM in assay [1] (setting [5]); less than 1000 nM in assay [2] (setting [6]); less than 1000 nM in assay [2] (setting [7]); more than 10000 nM in assay [3] (setting [8]).

Regarding `CN1CCN(CCCOc2ccc(S(=O)(=O)NCCCc3c[nH]c4cc(Cl)c(Cl)cc34)cc2)CC1` [Example 184, N-(3-(5,6-dichloro-1H-indol-3-yl)propyl)-4-(3-(4-methylpiperazin-1-yl)propoxy)benzenesulfonamide], the IC50 is less than 1000 nM in assay [1] (setting [4]); less than 1000 nM in assay [1] (setting [5]); less than 1000 nM in assay [2] (setting [6]); less than 1000 nM in assay [2] (setting [7]); more than 10000 nM in assay [3] (setting [8]).

In the case of `O=S(=O)(NCCCc1c[nH]c2ccc(Cl)cc12)c1ccc(CCCOc2ccncc2)cc1` [Example 185, N-(3-(5-chloro-1H-indole-3-yl)propyl)-4-(3-(pyridine-4-yloxy)propyl)benzenesulfonamide], the IC50 in assay [1] (setting [4]) was less than 1000 nM; in assay [1] (setting [5]), less than 1000 nM; in assay [2] (setting [6]) it was more than 10000 nM; in assay [3] (setting [8]) it was more than 10000 nM.

`CN1CCN(CCCc2ccc(S(=O)(=O)NCCCc3c[nH]c4ccc(Cl)cc34)cc2)CC1` [Example 186, N-(3-(5-chloro-1H-indol-3-yl)propyl)-4-(3-(4-methylpiperazin-1-yl)propyl)benzenesulfonamide]: the IC50 in assay [1] (setting [4]) is less than 1000 nM; in assay [1] (setting [5]), less than 1000 nM; in assay [2] (setting [6]), less than 1000 nM; in assay [2] (setting [7]) it was less than 1000 nM; in assay [3] (setting [8]), more than 10000 nM.

Regarding `CN1CCN(CCCOc2ccc(S(=O)(=O)NCC3CCc4[nH]c5ccc(F)cc5c4C3)cc2)CC1` (stereo not drawn) [Example 187, N-((6-fluoro-2,3,4,9-tetrahydro-1H-carbazol-3-yl)methyl)-4-(3-(4-methylpiperazin-1-yl)propoxy)benzenesulfonamide], the IC50 in assay [1] (setting [4]) is less than 1000 nM; in assay [1] (setting [5]) it was less than 1000 nM; in assay [2] (setting [6]), less than 1000 nM; in assay [2] (setting [7]), less than 1000 nM; in assay [3] (setting [8]), more than 10000 nM.

For `O=S(=O)(NCC1CCc2[nH]c3ccc(F)cc3c2C1)c1ccc(OCCCN2CCNCC2)cc1` (stereo not drawn) [Example 188, N-((6-fluoro-2,3,4,9-tetrahydro-1H-carbazol-3-yl)methyl)-4-(3-(piperazin-1-yl)propoxy)benzenesulfonamide], the IC50 is less than 1000 nM in assay [1] (setting [4]); less than 1000 nM in assay [1] (setting [5]); less than 1000 nM in assay [2] (setting [6]); less than 1000 nM in assay [2] (setting [7]); more than 10000 nM in assay [3] (setting [8]).

With `CN1CCN(CCCOc2ccc(S(=O)(=O)NCC3CCc4[nH]c5ccccc5c4C3)cc2)CC1` (stereo not drawn) [Example 189, 4-(3-(4-methylpiperazin-1-yl)propoxy)-N-((2,3,4,9-tetrahydro-1H-carbazol-3-yl)methyl)benzenesulfonamide], the IC50 in assay [1] (setting [4]) was less than 1000 nM; in assay [1] (setting [5]), less than 1000 nM; in assay [2] (setting [6]), less than 1000 nM; in assay [2] (setting [7]) it was less than 1000 nM; in assay [3] (setting [8]), more than 10000 nM.

As for `O=S(=O)(NCC1CCc2[nH]c3ccccc3c2C1)c1ccc(OCCCN2CCNCC2)cc1` (stereo not drawn) [Example 190, 4-(3-(piperazin-1-yl)propoxy)-N-((2,3,4,9-tetrahydro-1H-carbazol-3-yl)methyl)benzenesulfonamide], the IC50 in assay [1] (setting [4]) was less than 1000 nM; in assay [1] (setting [5]), less than 1000 nM; in assay [2] (setting [6]), less than 1000 nM; in assay [2] (setting [7]) it was less than 1000 nM; in assay [3] (setting [8]), more than 10000 nM.

Values taken from patent US12583818B2 (DAEGU-GYEONGBUK MEDICAL INNOVATION FOUNDATION, priority 2020, dated 2026).
